From patent US12226433B2, “Treatment of irritable bowel syndrome with molybdenum” (The Johns Hopkins University, priority 2018, dated 2025)

Tests used:
Desulfovibrio = test: Stool microbiome examined by 16S rRNA sequencing before and after molybdate treatment; format: in vivo, mouse; settings: molybdate treated control and IBS groups; stool before and after 7 days of cecal infusion; not reduced in saline treated groups
Description: (§1) IBS mice were generated by colorectal infusion of 0.5% acetic acid (20 μl) at postnatal day 10. The mice were then allowed to grow up until adult. The adult IBS and control mice were undergone a surgery to insert a catheter into the cecum. The catheter made from PE10 tubing with 8 cm long. It was insert into cecum about 0.5 cm and then tunneled to the back of the mouse after sutured on the cecum wall ensuring no cecum content leaking. Then, a pair of electrodes were inserted into the external oblique (abdominal) muscle for pain sensitivity test. The mice received 0.2 ml sodium molybdate (10 mg/ml) through cecal infusion starting on the day after surgery for 7 days. One day after the last infusion, a visceral motor reflex (VMR) response to colorectal distention (CRD) was conducted to assess the pain sensitivity. A balloon was inserted into colorectum through the anus for CRD. The VMR is measured using an electromyographic (EMG) recording that response to CRD with 15, 30, 50 and 70 mmHg. To assess the microbiota, stool were collected before and after the molybdate treatment. Microbiome were examined by 16S rRNA sequencing.

IBS mouse model = test: Visceral motor reflex (VMR) response to colorectal distention (CRD), pain sensitivity in IBS mouse model; format: in vivo; settings: 0.2 ml sodium molybdate (10 mg/ml) cecal infusion for 7 days; for pain sensitivity (hyperalgesia) assessed by VMR response to CRD: IBS mice, CRD 15, 30, 50 and 70 mmHg, vs IBS-vehicle, P<0.05
Description: as §1

[Na+].[Na+].[O]=[Mo](=[O])([O-])[O-] [sodium molybdate]
sulfate-reducing bacteria Desulfovibrio in stool (16S rRNA sequencing) (Desulfovibrio): reduced
pain sensitivity (hyperalgesia) assessed by VMR response to CRD (IBS mouse model): reduced hyperalgesia
pain sensitivity (hyperalgesia) assessed by VMR response to CRD (IBS mouse model; listed as molybdate): significantly reduced
pain sensitivity assessed by VMR response to CRD (IBS mouse model; control mice, molybdate vs saline treated): no significant different
